Results published in PubChem BioAssay AID588772 (The Scripps Research Institute Molecular Screening Center, 2011).
Calls of active or inactive are those of the source. How the calls were made is not given here.

System: 3C-like protease (3CLpro), SARS coronavirus
Experiment: SARS 3CLpro protease inhibitors, late-stage follow-up, biochemical, fluorescence, single concentration, set 4 (AID 588772)
Conditions: recombinant 3CLpro, fluorogenic substrate cleavage; at 100 µM; active compounds read high

| Structure (SMILES) | inhibition |
| --- | --- |
| COc1cccc(Oc2ccc(N(C(=O)c3ccco3)C(C(=O)NC(C)(C)C)c3cccnc3)cc2)c1 (stereo not drawn) | 52% |
| CC(C)(C)NC(=O)C(c1cn[nH]c1)N(C(=O)c1ccco1)c1ccc(C(C)(C)C)cc1 (stereo not drawn) | 16.1% (inactive) |
| CC(C)(C)c1ccc(N(Cc2cccnc2)C(=O)c2cnc[nH]2)cc1 | 46.8% (inactive) |
| CC(C)(C)NC(=O)[C@@H](c1cccnc1)N(C(=O)c1cnc[nH]1)c1ccc(C(C)(C)C)cc1 | 47.1% (inactive) |
| Cc1noc(C)c1-c1ccc(N(C(=O)c2ccco2)C(C(=O)NC(C)(C)C)c2cccnc2)cc1 (stereo not drawn) | 85.1% |
| CC(C)(C)NC(=O)C(c1cn[nH]n1)N(C(=O)c1ccco1)c1ccc(C(C)(C)C)cc1 (stereo not drawn) | 22.7% (inactive) |
| CC(C)(C)NC(=O)[C@H](c1cccnc1)N(C(=O)c1cnc[nH]1)c1ccc(C(C)(C)C)cc1 | 97.6% |
| Cn1cnc(C(=O)N(c2ccc(C(C)(C)C)cc2)C(C(=O)NC(C)(C)C)c2cccnc2)c1 (stereo not drawn) | 51.3% |
| CC(C)(C)NC(=O)C(c1cccnc1)N(C(=O)c1ccco1)c1ccc(-c2cncnc2)cc1 (stereo not drawn) | 48.6% (inactive) |
| Cc1ccc(C(C(=O)NC(C)(C)C)N(C(=O)c2ccco2)c2ccc(C(C)(C)C)cc2)cn1 (stereo not drawn) | -4.1% (inactive) |
| CC(C)(C)NC(=O)C(c1ccnnc1)N(C(=O)c1ccco1)c1ccc(C(C)(C)C)cc1 (stereo not drawn) | 94.3% |
| CC(C)(C)NC(=O)C(c1ccncc1)N(C(=O)c1ccco1)c1ccc(C(C)(C)C)cc1 (stereo not drawn) | 60.2% |
| CC(C)(C)NC(=O)C(c1cccnc1)N(C(=O)c1ccco1)c1ccc(I)cc1 (stereo not drawn) | 66.3% |
| CC(C)(C)NC(=O)C(c1ccn[nH]1)N(C(=O)c1ccco1)c1ccc(C(C)(C)C)cc1 (stereo not drawn) | 6.3% (inactive) |
| CC(C)(C)NC(=O)C(c1cccnc1)N(C(=O)c1ccco1)c1ccc(-c2ccnc(F)c2)cc1 (stereo not drawn) | 40.3% (inactive) |
| CC(C)(C)NC(=O)C(c1cccnc1)N(C(=O)c1ccco1)c1ccc(Cc2ccccc2)cc1 (stereo not drawn) | 77.6% |
| CC(C)(C)NC(=O)C(c1cccnc1)N(C(=O)c1ccco1)c1ccc(OCc2ccccc2)cc1 (stereo not drawn) | 53.2% |
| CC(C)(C)NC(=O)C(c1cccnc1)N(C(=O)c1ccco1)c1ccc(-c2cccnc2)cc1 (stereo not drawn) | 64.1% |
| CC(C)(C)NC(=O)C(c1cnc[nH]1)N(C(=O)c1ccco1)c1ccc(C(C)(C)C)cc1 (stereo not drawn) | 22.8% (inactive) |
| CC(C)(C)NC(=O)C(c1cccnc1)N(C(=O)c1ccco1)c1ccc(-c2cccc(F)c2F)cc1 (stereo not drawn) | 90.2% |
| CC(C)(C)NC(=O)C(c1cccnc1)N(C(=O)c1ccco1)c1ccc(-c2ccccc2)cc1 (stereo not drawn) | 94.8% |
| CC(C)(C)NC(=O)C(c1cnccn1)N(C(=O)c1ccco1)c1ccc(C(C)(C)C)cc1 (stereo not drawn) | 96.2% |
| CC(C)(C)NC(=O)C(c1ccccn1)N(C(=O)c1ccco1)c1ccc(C(C)(C)C)cc1 (stereo not drawn) | 0.7% (inactive) |
| CC(C)(C)NC(=O)C(c1cccnc1)N(C(=O)c1ccco1)c1ccc(-c2cccn2C(=O)OC(C)(C)C)cc1 (stereo not drawn) | 56.9% |
| CC(C)(C)NC(=O)C(c1cccnc1)N(C(=O)c1ccco1)c1ccc(-c2ccncc2)cc1 (stereo not drawn) | 27.8% (inactive) |
| CC(C)(C)NC(=O)C(c1cccnc1)N(C(=O)c1cc2ccccc2o1)c1ccc(C(C)(C)C)cc1 (stereo not drawn) | 14.3% (inactive) |
| CC(C)(C)NC(=O)C(c1cccnc1)N(C(=O)c1ccco1)c1ccc(Oc2ccccc2)cc1 (stereo not drawn) | 40.9% (inactive) |
| CC(C)(C)NC(=O)C(c1cccnc1)N(C(=O)c1ccc(C(F)(F)F)o1)c1ccc(C(C)(C)C)cc1 (stereo not drawn) | 17.8% (inactive) |
